Assay results reported in paper PMC8362039, “Development of Non‐Hydrolysable Oligosaccharide Activity‐Based Inactivators for Endoglycanases: A Case Study on α‐1,6 Mannanases” (Chemistry (Weinheim an Der Bergstrasse, Germany), 2021).

Columns and labels:
Test in all cases: intact protein mass spectrometry
Type in all cases: binding
[1] = target: T1, BcGH76 (Niallia circulans, UniProt Q9Z4P9); settings: probe:protein 10:1, 25 mM HEPES pH 7, 100 mM NaCl, 293 K, 22 h
T1 construct: gene aman6; recombinant GH76 endo-mannanase; borders and tags not given; R341Q crystallisation variant also used
T1 sequence (Q9Z4P9 entry or part of it): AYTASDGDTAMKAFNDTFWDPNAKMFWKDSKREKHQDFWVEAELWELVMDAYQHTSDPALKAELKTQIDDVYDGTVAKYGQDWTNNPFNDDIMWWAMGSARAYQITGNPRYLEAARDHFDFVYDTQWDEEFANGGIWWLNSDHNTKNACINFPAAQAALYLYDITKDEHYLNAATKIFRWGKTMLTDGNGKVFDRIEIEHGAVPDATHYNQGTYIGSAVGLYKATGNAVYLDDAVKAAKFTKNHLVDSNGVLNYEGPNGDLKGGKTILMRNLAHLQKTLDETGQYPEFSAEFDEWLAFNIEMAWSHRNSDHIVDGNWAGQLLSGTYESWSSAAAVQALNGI
Source text: (§1) intact protein mass spectrometry on BcGH76

[2] = target: T2, BcGH76 (Niallia circulans, UniProt Q9Z4P9, R341Q); settings: covalent, probe:protein 10:1, 25 mM HEPES pH 7, 100 mM NaCl, 293 K
T2 construct: gene aman6; recombinant GH76 endo-mannanase; borders and tags not given; R341Q crystallisation variant also used
T2 sequence (Q9Z4P9 entry or part of it R341Q): as the sequence (Q9Z4P9 entry or part of it) above, with R307Q counted along it
Source text: as §1

[3] = target: T3, BcGH76 (Niallia circulans, UniProt Q9Z4P9, D125N); settings: probe:protein 10:1, 25 mM HEPES pH 7, 100 mM NaCl, 293 K
T3 construct: gene aman6; recombinant GH76 endo-mannanase; borders and tags not given; R341Q crystallisation variant also used
T3 sequence (Q9Z4P9 entry or part of it D125N): as the sequence (Q9Z4P9 entry or part of it) above, with D91N counted along it
Source text: as §1

[4] = target: T4, BcGH76 (Niallia circulans, UniProt Q9Z4P9, D125N/R341Q); settings: covalent, probe:protein 10:1, 25 mM HEPES pH 7, 100 mM NaCl, 293 K
T4 construct: gene aman6; recombinant GH76 endo-mannanase; borders and tags not given; R341Q crystallisation variant also used
T4 sequence (Q9Z4P9 entry or part of it D125N/R341Q): as the sequence (Q9Z4P9 entry or part of it) above, with D91N, R307Q counted along it
Source text: as §1

covalent labelling [1] [%] | 22 h incubation / 1 [2] [%] | 22 h incubation / 2 ([3]; covalent) [%] | 22 h incubation / 2 [4] [%] | 16 h incubation / 2 ([2]; 22 h) [%] | percent covalent labelling [1] [%] | covalent labelling of protein (%) ([3]; 22 h) | 22 h incubation / 3 [4] [%] | 16 h incubation / 3 ([2]; 22 h) [%] | Structure (SMILES)
30 | 30 | – | – | – | – | – | – | – | OC[C@H]1O[C@H](OC[C@@H]2[C@@H](O)[C@H](O)[C@H](O)[C@H]3O[C@@H]23)[C@@H](O)[C@@H](O)[C@@H]1O [compound 1, α‐1,6‐α‐manno‐cyclophellitol disaccharide 1]
30 | – | 85 | 85 | 17 | – | – | – | – | OC[C@H]1O[C@H](OC[C@H]2O[C@H](OC[C@@H]3[C@@H](O)[C@H](O)[C@H](O)[C@H]4O[C@@H]34)[C@@H](O)[C@@H](O)[C@@H]2O)[C@@H](O)[C@@H](O)[C@@H]1O [compound 2, trisaccharide 2]
– | – | – | – | – | 100 | 44 | 45 | 100 | OC[C@H]1O[C@H](OC[C@H]2C[C@H](OC[C@@H]3[C@@H](O)[C@H](O)[C@H](O)[C@H]4O[C@@H]34)[C@@H](O)[C@@H](O)[C@@H]2O)[C@@H](O)[C@@H](O)[C@@H]1O [compound 3, carba‐trisaccharide cyclophellitol 3]
